Experimental data as given in patent US4018801A, “Substituted oxirane compounds” (The Dow Chemical Company, priority 1975, dated 1977).

Columns and labels:
Barnyard Grass = assay: Pre-emergent control of seed germination, soil drench; type: in vivo; conditions: Barnyard Grass, about 2 weeks
Description: (§1) Four parts by weight of the compound, 0.08 part of sorbitan trioleate (Span 85), and 0.02 part of a sorbitan monooleate polyoxyethylene derivative (Tween 80) are dipersed in 40 milliliters of acetone to produce a concentrate composition in the form of a water-dispersible liquid containing the predetermined oxirane compound as the sole active agent.
(§2) A portion of each of these concentrate compositions were separately dispersed in portions of water to provide aqueous compositions, containing 0.44 pound of the oxirane compound per 100 gallons of ultimate aqueous mixture.
(§3) The aqueous compositions were then employed for the treatment of seed beds of good agricultural soil which had been prepared and seeded with the seeds of various grass species and broadleaf plants. The grass species included white winter wheat, cultured rice, pigweeds, crabgrass, cheat grass, wild oats, Johnson grass, barnyard grass and yellow foxtail; and the broadleaf plants included corn. In the treating operations, a predetermined quantity of each of the compositions was applied to separate seedbeds as a soil drench at a rate of about 0.43 acre inch of aqueous composition per acre. The quantities were controlled to supply a substantial uniform dosage in a seedbed equivalent to 1.0, 2.0 and 5.0 pounds of the oxirane compound per acre. These dosages correspond, respectively, to a concentration, within the soil depth penetrated of about 1.6, 3.2 and 8.0 parts by weight of the oxirane compound per million parts by weight of soil. Other seedbeds were similarly seeded with the named plant species but were left untreated to serve as checks.
(§4) After about 2 weeks the seedbeds were examined to ascertain what control of the growth of seeds had been obtained.
(§5) were prepared as in Example 32 and similarly employed for the pre-emergencetreatment of various plant species.
(§6) An aqueous composition containing 2-(α,α,α -trifluoro-m-tolyl)-2-(2,2,2-trichloroethyl)oxirane was prepared as described in Example 32. The composition was then employed according to the procedures of Example 32 except that lower concentrations of the oxirane compound were employed in the composition.
(§7) The percent control of the various plant species at the employed dosage rate of the 2-(α,α,α-trifluoro-m-tolyl)- 2-(2,2,2-trichloroethyl) supplied by the composition is set forth in the following Table IV.

Pigweeds = assay: as above; type: in vivo; conditions: Pig Weeds, about 2 weeks
Description: as §1, §2, §3, §4, §5, §6, §7

Wild Oats = assay: as above; type: in vivo; conditions: Wild Oats, about 2 weeks
Description: as §1, §2, §3, §4, §5, §6, §7

Yellow Foxtail = assay: as above; type: in vivo; conditions: Yellow Foxtail, 1.0 pounds per surface acre, about 2 weeks
Description: as §1, §2, §3, §4, §5, §6, §7

Crabgrass = assay: as above; type: in vivo; conditions: Crabgrass, about 2 weeks
Description: as §1, §2, §3, §4, §5
(§8) Separate aqueous compositions containing the 2-(m-chlorophenyl)-2-(2,2,2-trichloroethyl)oxirane (Cmpd. A) and 2-(m-bromophenyl)-2-(2,2,2-trichloroethyl)oxirane (Cmpd. C) compounds of the present invention were prepared as in Example 32 for comparative per-emergence herbicide tests against noxious grass species with the known 2 -(p-chlorophenyl)-2-(2,2,2-trichloroethyl)oxirane (Cmpd. B) compound and 2-(p-bromophenyl)-2-(2,2,2-trichloroethyl)oxirane (Cmpd. D). The pre-emergence tests were conducted in Example 32 and the results of such tests are set forth below in Table III.
as §6, §7

Johnson Grass = assay: as above; type: in vivo; conditions: Johnson Grass, about 2 weeks
Description: as §1, §2, §3, §4, §5, §8, §6, §7

Cheat Grass = assay: as above; type: in vivo; conditions: 5.0 pounds per surface acre, about 2 weeks
Description: as §1, §2
as §3, with “These dosages correspond, respectively, to a concentration, within the soil depth penetrated of about 1.6, 3.2 and 8.0 parts by weight of the oxirane compound per million parts by weight of soil. Other seedbeds were similarly seeded with the named plant species but were left untreated to serve as checks.” left out

Cultured Rice = assay: as above; type: in vivo; conditions: about 2 weeks
Description: as §1, §2, §3, §4, §6, §7

White Winter Wheat = assay: as above; type: in vivo; conditions: about 2 weeks
Description: as §1, §2, §3, §4, §6, §7

Corn = assay: as above; type: in vivo; conditions: about 2 weeks
Description: as §1, §2, §3
After about 2 weeks the seedbeds were examined to ascertain what control of the growth of seeds had been obtained. […]
as §6, §7

Aspergillus terreus = assay: Control of fungal plants on nutrient agar; type: cell-based; conditions: 500 parts by weight per million
Procedure: (§9) Separate acetone compositions containing 100 and 500 parts, respectively, of each of 2-(p-nitrophenyl)- 2-(2,2,2-trichloroethyl)oxirane and 2-(m-nitrophenyl)- 2-(2,2,2-trichloroethyl)oxirane compounds per million parts by weight of ultimate mixture were prepared by dissolving a pre-determined amount of each of the above compounds in acetone to give the desired concentrations. The solutions were dispersed in melted nutrient agar to produce culture media for fungal plants. The agar solutions were poured into petri dishes and allowed to solidify. The solidified agar surface in each petri dish was inoculated with one species of a fungal plant; the plants employed being Staphylococcus aureus, Candida albicans, Trichophton mentagrophytes, Bacillus subtilis, Aspergillus terreus, Candida pelliculosa, Pullularia pullulans, Mycobacterium phlei, Cephaloascus fragans and Aerobacter aerogenes.
(§10) The inoculation was carried out by applying droplets of a solution containing the fungal plants to the agar surfaces. The inoculated petri dishes were then incubated for an appropriate period of time and under conditions conducive to the growth of the fungal plants involved.
(§11) After incubation, the petri dishes were examined to determine the degree of control of the fungal plants.

Bacillus subtilis = assay: Control of fungal plants on nutrient agar; type: cell-based; conditions: 500 parts by weight per million
Procedure: as §9, §10, §11

Candida albicans = assay: Control of fungal plants on nutrient agar; type: cell-based; conditions: 500 parts by weight per million
Procedure: as §9, §10, §11

Candida pelliculosa = assay: Control of fungal plants on nutrient agar; type: cell-based; conditions: 500 parts by weight per million
Procedure: as §9, §10, §11

Cephaloascus fragans = assay: Control of fungal plants on nutrient agar; type: cell-based; conditions: 500 parts by weight per million
Procedure: as §9, §10, §11

Mycobacterium phlei = assay: Control of fungal plants on nutrient agar; type: cell-based; conditions: 500 parts by weight per million
Procedure: as §9, §10, §11

Pullularia pullulans = assay: Control of fungal plants on nutrient agar; type: cell-based; conditions: 500 parts by weight per million
Procedure: as §9, §10, §11

Staphylococcus aureus = assay: Control of fungal plants on nutrient agar; type: cell-based; conditions: 500 parts by weight per million
Procedure: as §9, §10, §11

[1] = test system: Trichophton mentagrophytes; assay: Control of fungal plants on nutrient agar; type: cell-based; conditions: 500 parts by weight per million
Procedure: as §9, §10, §11

SMILES: O=[N+]([O-])c1cccc(C2(CC(Cl)(Cl)Cl)CO2)c1 (centres unmarked) [Example 2, 2-(m-nitrophenyl)-2-(2,2,2-trichloroethyl)oxirane]
- Percent Pre-Emergent Control of Seed Germination (Barnyard Grass; 1.0 pounds per surface acre): 50%
- Percent Pre-Emergent Control of Seed Germination (Barnyard Grass; 2.0 pounds per surface acre): 50%
- Percent Pre-Emergent Control of Seed Germination (Barnyard Grass; 5.0 pounds per surface acre): 95%
- Percent Pre-Emergent Control of Seed Germination (Pigweeds; 1.0 pounds per surface acre): 85%
- Percent Pre-Emergent Control of Seed Germination (Pigweeds; 2.0 pounds per surface acre): 95%
- Percent Pre-Emergent Control of Seed Germination (Pigweeds; 5.0 pounds per surface acre): 95%
- Percent Pre-Emergent Control of Seed Germination (Wild Oats; 1.0 pounds per surface acre): 40%
- Percent Pre-Emergent Control of Seed Germination (Wild Oats; 2.0 pounds per surface acre): 50%
- Percent Pre-Emergent Control of Seed Germination (Wild Oats; 5.0 pounds per surface acre): 80%
- Percent Pre-Emergent Control of Seed Germination (Yellow Foxtail): 100%
- Percent Pre-Emergent Control of Seed Germination (Crabgrass; 1.0 pounds per surface acre): 95%
- Percent Pre-Emergent Control of Seed Germination (Crabgrass; 2.0 pounds per surface acre): 100%
- Percent Pre-Emergent Control of Seed Germination (Crabgrass; 5.0 pounds per surface acre): 100%
- Percent Pre-Emergent Control of Seed Germination (Johnson Grass; 1.0 pounds per surface acre): 70%
- Percent Pre-Emergent Control of Seed Germination (Johnson Grass; 2.0 pounds per surface acre): 85%
- Percent Pre-Emergent Control of Seed Germination (Johnson Grass; 5.0 pounds per surface acre): 95%
- Percent Pre-Emergent Control of Seed Germination (Cheat Grass): 100%
- Percent Pre-Emergent Control of Seed Germination (Cultured Rice; 1.0 pounds per surface acre): 100%
- Percent Pre-Emergent Control of Seed Germination (Cultured Rice; 2.0 pounds per surface acre): 95%
- Percent Pre-Emergent Control of Seed Germination (Cultured Rice; 5.0 pounds per surface acre): 100%
- Percent Pre-Emergent Control of Seed Germination (White Winter Wheat; 1.0 pounds per surface acre): 90%
- Percent Pre-Emergent Control of Seed Germination (White Winter Wheat; 2.0 pounds per surface acre): 50%
- Percent Pre-Emergent Control of Seed Germination (White Winter Wheat; 5.0 pounds per surface acre): 95%
- Percent Pre-Emergent Control of Seed Germination (Corn; 1.0 pounds per surface acre): 100%
- Percent Pre-Emergent Control of Seed Germination (Corn; 2.0 pounds per surface acre): 50%
- Percent Pre-Emergent Control of Seed Germination (Corn; 5.0 pounds per surface acre): 0%
- degree of control of the fungal plants (Aspergillus terreus): complete control and kill
- degree of control of the fungal plants (Bacillus subtilis): complete control and kill
- degree of control of the fungal plants (Candida albicans): complete control and kill
- degree of control of the fungal plants (Candida pelliculosa): complete control and kill
- degree of control of the fungal plants (Cephaloascus fragans): complete control and kill
- degree of control of the fungal plants (Mycobacterium phlei): complete control and kill
- degree of control of the fungal plants (Pullularia pullulans): complete control and kill
- degree of control of the fungal plants (Staphylococcus aureus): complete control and kill
- degree of control of the fungal plants [1]: complete control and kill
